# Reference: patent US20050009840A1 (SUGEN, INC., priority 2003, published 2005)
# Target: T1, HGFR (Homo sapiens, UniProt P08581)
# T1 construct: purchased Upstate 14-526
# Test: HGFR continuous-coupled spectrophotometric assay
# Format: biochemical
# Details: at 1 pM; Table 6, library procedure 41; read-out: % Inhibition (percent c-MET inhibition)
# T1 sequence (P08581 974-1390 limits assumed): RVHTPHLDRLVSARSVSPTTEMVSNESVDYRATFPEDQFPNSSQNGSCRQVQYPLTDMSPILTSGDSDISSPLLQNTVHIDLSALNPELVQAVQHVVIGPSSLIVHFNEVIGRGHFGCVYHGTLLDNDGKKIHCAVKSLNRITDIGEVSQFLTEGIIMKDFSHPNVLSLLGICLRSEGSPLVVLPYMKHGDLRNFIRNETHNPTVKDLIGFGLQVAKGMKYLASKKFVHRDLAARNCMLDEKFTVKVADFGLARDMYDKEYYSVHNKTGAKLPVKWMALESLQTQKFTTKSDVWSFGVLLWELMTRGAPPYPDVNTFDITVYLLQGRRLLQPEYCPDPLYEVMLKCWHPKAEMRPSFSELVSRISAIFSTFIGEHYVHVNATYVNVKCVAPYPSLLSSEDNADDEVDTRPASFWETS
row,SMILES,inhibition at 1 pM [%]
1,Nc1ncc(C(=O)NCCCN2CCOCC2)cc1OCc1c(Cl)cccc1Cl [Example L-177],26
2,Nc1ncc(C(=O)NCc2ccc(S(N)(=O)=O)cc2)cc1OCc1c(Cl)cccc1Cl [Example L-178],30
3,CN1CCN(CCCNC(=O)c2cnc(N)c(OCc3c(Cl)cccc3Cl)c2)CC1 [Example L-179],24
4,Nc1ncc(C(=O)NCCCO)cc1OCc1c(Cl)cccc1Cl [Example L-180],26
5,Nc1ncc(C(=O)NCCN2CCOCC2)cc1OCc1c(Cl)cccc1Cl [Example L-181],31
6,Nc1ncc(C(=O)NC(CO)Cc2ccc(Cl)cc2)cc1OCc1c(Cl)cccc1Cl [Example L-182],27
7,COc1ccccc1CNC(=O)c1cnc(N)c(OCc2c(Cl)cccc2Cl)c1 [Example L-183],32
8,Nc1ncc(C(=O)NC2CCN(Cc3ccccc3)C2)cc1OCc1c(Cl)cccc1Cl [Example L-184],27
9,Nc1ncc(C(=O)NCCc2c[nH]cn2)cc1OCc1c(Cl)cccc1Cl [Example L-185],29
10,CN(C)c1ccc(CNC(=O)c2cnc(N)c(OCc3c(Cl)cccc3Cl)c2)cc1 [Example L-186],30
11,Nc1ncc(C(=O)NCCc2ccc(S(N)(=O)=O)cc2)cc1OCc1c(Cl)cccc1Cl [Example L-187],30
12,NC(=O)C1CCCN(C(=O)c2cnc(N)c(OCc3c(Cl)cccc3Cl)c2)C1 [Example L-188],39

# Same assay, conditions: at 50 nM; Table 5, library procedure 40; read-out: % inhibition (percent c-MET inhibition)
row,SMILES,inhibition at 0.05 µM [%]
1,CC(Oc1cc(-c2ccc(C(=O)N(C)CCN(C)C)cc2)cnc1N)c1c(Cl)ccc(F)c1Cl [Example L-112],85
2,COc1cc(CNC(=O)c2ccc(-c3cnc(N)c(OC(C)c4c(Cl)ccc(F)c4Cl)c3)cc2)cc(OC)c1 [Example L-113],57
3,CCCCN(C)C(=O)c1ccc(-c2cnc(N)c(OC(C)c3c(Cl)ccc(F)c3Cl)c2)cc1 [Example L-115],63
4,CC(C)OCCCNC(=O)c1ccc(-c2cnc(N)c(OC(C)c3c(Cl)ccc(F)c3Cl)c2)cc1 [Example L-116],62
5,CC(C)CNC(=O)c1ccc(-c2cnc(N)c(OC(C)c3c(Cl)ccc(F)c3Cl)c2)cc1 [Example L-117],60
6,CCN(CCN(C)C)C(=O)c1ccc(-c2cnc(N)c(OC(C)c3c(Cl)ccc(F)c3Cl)c2)cc1 [Example L-118],86
7,CCOCCNC(=O)c1ccc(-c2cnc(N)c(OC(C)c3c(Cl)ccc(F)c3Cl)c2)cc1 [Example L-120],63
8,CC(Oc1cc(-c2ccc(C(=O)NCc3ccc(CN(C)C)cc3)cc2)cnc1N)c1c(Cl)ccc(F)c1Cl [Example L-121],75
9,CC(Oc1cc(-c2ccc(C(=O)NCC3CC3)cc2)cnc1N)c1c(Cl)ccc(F)c1Cl [Example L-122],61
10,CC(Oc1cc(-c2ccc(C(=O)N3CCC(N(C)C)C3)cc2)cnc1N)c1c(Cl)ccc(F)c1Cl [Example L-123],80
11,CC(Oc1cc(-c2ccc(C(=O)N(C)C)cc2)cnc1N)c1c(Cl)ccc(F)c1Cl [Example L-125],77
12,CCN(C)C(=O)c1ccc(-c2cnc(N)c(OC(C)c3c(Cl)ccc(F)c3Cl)c2)cc1 [Example L-126],52
13,CCCN1CCN(C(=O)c2ccc(-c3cnc(N)c(OC(C)c4c(Cl)ccc(F)c4Cl)c3)cc2)CC1 [Example L-129],82
14,CC(Oc1cc(-c2ccc(C(=O)N(C)C3CCCC3)cc2)cnc1N)c1c(Cl)ccc(F)c1Cl [Example L-130],60
15,Cc1ccnc(NC(=O)c2ccc(-c3cnc(N)c(OC(C)c4c(Cl)ccc(F)c4Cl)c3)cc2)c1 [Example L-131],61
16,CC(Oc1cc(-c2ccc(C(=O)NCCc3cccnc3)cc2)cnc1N)c1c(Cl)ccc(F)c1Cl [Example L-133],68
17,CC(Oc1cc(-c2ccc(C(=O)N3CCN(C(C)C)CC3)cc2)cnc1N)c1c(Cl)ccc(F)c1Cl [Example L-134],76
18,COCCN1CCN(C(=O)c2ccc(-c3cnc(N)c(OC(C)c4c(Cl)ccc(F)c4Cl)c3)cc2)CC1 [Example L-135],76
19,CC(Oc1cc(-c2ccc(C(=O)N3CCC(C(=O)c4ccccc4)CC3)cc2)cnc1N)c1c(Cl)ccc(F)c1Cl [Example L-136],61

row,SMILES,inhibition at 0.05 µM [%]
1,CCN(CC)CCN1CCN(C(=O)c2ccc(-c3cnc(N)c(OC(C)c4c(Cl)ccc(F)c4Cl)c3)cc2)CC1 [Example L-137],78
2,CC(CN(C)C)NC(=O)c1ccc(-c2cnc(N)c(OC(C)c3c(Cl)ccc(F)c3Cl)c2)cc1 [Example L-138],83
3,CC1CCC(NC(=O)c2ccc(-c3cnc(N)c(OC(C)c4c(Cl)ccc(F)c4Cl)c3)cc2)CC1 [Example L-139],60
4,CC(C)OCCNC(=O)c1ccc(-c2cnc(N)c(OC(C)c3c(Cl)ccc(F)c3Cl)c2)cc1 [Example L-140],141
5,CC(Oc1cc(-c2ccc(C(=O)N3CCC(CO)CC3)cc2)cnc1N)c1c(Cl)ccc(F)c1Cl [Example L-141],79
6,CC(Oc1cc(-c2ccc(C(=O)N3CCC(CCO)CC3)cc2)cnc1N)c1c(Cl)ccc(F)c1Cl [Example L-142],72
7,CC(C)CN(C)C(=O)c1ccc(-c2cnc(N)c(OC(C)c3c(Cl)ccc(F)c3Cl)c2)cc1 [Example L-143],59
8,Cc1cccc(CN(C)C(=O)c2ccc(-c3cnc(N)c(OC(C)c4c(Cl)ccc(F)c4Cl)c3)cc2)n1 [Example L-144],71
9,COC(=O)CN(C)C(=O)c1ccc(-c2cnc(N)c(OC(C)c3c(Cl)ccc(F)c3Cl)c2)cc1 [Example L-145],77
10,CC(Oc1cc(-c2ccc(C(=O)N3CCN(CC(=O)N(C)C)CC3)cc2)cnc1N)c1c(Cl)ccc(F)c1Cl [Example L-146],89
11,CC(Oc1cc(-c2ccc(C(=O)N3CCN(C4CCN(C)CC4)CC3)cc2)cnc1N)c1c(Cl)ccc(F)c1Cl [Example L-147],96
12,CC(Oc1cc(-c2ccc(C(=O)NCc3ccc(C(F)(F)F)nc3)cc2)cnc1N)c1c(Cl)ccc(F)c1Cl [Example L-148],62
13,CC(Oc1cc(-c2ccc(C(=O)NCCCc3c[nH]nc3O)cc2)cnc1N)c1c(Cl)ccc(F)c1Cl [Example L-150],81
14,CC(Oc1cc(-c2ccc(C(=O)N3CCC(Oc4ccccc4)CC3)cc2)cnc1N)c1c(Cl)ccc(F)c1Cl [Example L-151],58
15,CC(Oc1cc(-c2ccc(C(=O)N3CCS(=O)(=O)CC3)cc2)cnc1N)c1c(Cl)ccc(F)c1Cl [Example L-153],95
16,CC(Oc1cc(-c2ccc(C(=O)NCCN3[C@H](C)CCC[C@@H]3C)cc2)cnc1N)c1c(Cl)ccc(F)c1Cl (stereo partly drawn) [Example L-154],77
17,CC(Oc1cc(-c2ccc(C(=O)NCC3(N(C)C)CCOCC3)cc2)cnc1N)c1c(Cl)ccc(F)c1Cl [Example L-155],66
18,CC(Oc1cc(-c2ccc(C(=O)NC3CCOCC3)cc2)cnc1N)c1c(Cl)ccc(F)c1Cl [Example L-156],73
19,C#CCCN1CCN(C(=O)c2ccc(-c3cnc(N)c(OC(C)c4c(Cl)ccc(F)c4Cl)c3)cc2)CC1 [Example L-157],77

row,SMILES,inhibition at 0.05 µM [%]
1,CC(Oc1cc(-c2ccc(C(=O)Nc3ccc(-n4ccnc4)cc3)cc2)cnc1N)c1c(Cl)ccc(F)c1Cl [Example L-158],63
2,CC(Oc1cc(-c2ccc(C(=O)NCC(c3cccnc3)N(C)C)cc2)cnc1N)c1c(Cl)ccc(F)c1Cl [Example L-159],78
3,CC(Oc1cc(-c2ccc(C(=O)N3CCC(c4cccnc4)C3)cc2)cnc1N)c1c(Cl)ccc(F)c1Cl [Example L-161],79
4,CC(Oc1cc(-c2ccc(C(=O)NCCC3CCOCC3)cc2)cnc1N)c1c(Cl)ccc(F)c1Cl [Example L-162],66
5,CC(Oc1cc(-c2ccc(C(=O)N3CCN(CCS(C)(=O)=O)CC3)cc2)cnc1N)c1c(Cl)ccc(F)c1Cl [Example L-163],83
6,CC(Oc1cc(-c2ccc(C(=O)NC(CO)c3cccnc3)cc2)cnc1N)c1c(Cl)ccc(F)c1Cl [Example L-164],61
7,CC(Oc1cc(-c2ccc(C(=O)N3CCN(CC4CCN(C)CC4)CC3)cc2)cnc1N)c1c(Cl)ccc(F)c1Cl [Example L-165],88
8,CC(Oc1cc(-c2ccc(C(=O)NCCc3nc(-c4ccncc4)c[nH]3)cc2)cnc1N)c1c(Cl)ccc(F)c1Cl [Example L-166],67
9,CCNC(=O)c1ccc(-c2cnc(N)c(OC(C)c3c(Cl)ccc(F)c3Cl)c2)cc1 [Example L-167],66
10,CC(Oc1cc(-c2ccc(C(=O)N3CCNC(=O)C3)cc2)cnc1N)c1c(Cl)ccc(F)c1Cl [Example L-168],90
11,COC1CCN(C(=O)c2ccc(-c3cnc(N)c(OC(C)c4c(Cl)ccc(F)c4Cl)c3)cc2)CC1 [Example L-169],79
12,CC(Oc1cc(-c2ccc(C(=O)NCCCN(C)C3CCCCC3)cc2)cnc1N)c1c(Cl)ccc(F)c1Cl [Example L-170],77
13,CC(Oc1cc(-c2ccc(C(=O)NCCN(C)C3CCCCC3)cc2)cnc1N)c1c(Cl)ccc(F)c1Cl [Example L-171],69
14,CC(Oc1cc(-c2ccc(C(=O)N3CCC(CO)C3)cc2)cnc1N)c1c(Cl)ccc(F)c1Cl [Example L-172],79
15,CC(Oc1cc(-c2ccc(C(=O)NCC3CCOCC3)cc2)cnc1N)c1c(Cl)ccc(F)c1Cl [Example L-173],63
16,C[C@H](Oc1cc(-c2ccc(C(=O)N[C@H]3CC[C@H](CO)CC3)cc2)cnc1N)c1c(Cl)ccc(F)c1Cl [Example L-174],68
17,CC(Oc1cc(-c2ccc(C(=O)N3CCC(COCC4CC4)CC3)cc2)cnc1N)c1c(Cl)ccc(F)c1Cl [Example L-175],60
18,Cc1noc([C@H]2CC[C@H](CNC(=O)c3ccc(-c4cnc(N)c(O[C@@H](C)c5c(Cl)ccc(F)c5Cl)c4)cc3)CC2)n1 [Example L-176],51
